Reference: patent US20130149331A1, “RHAMNOSE AND FORSSMAN CONJUGATED IMMUNOGENIC AGENTS” (priority 2011, published 2013)

System: anti-Rha antibodies in normal human serum
Experiment: Competitive ELISA assay with free monosaccharides, BSA-R1 immobilized
Type: binding
Settings: free monosaccharide 200 mM to 12.5 mM; human serum 1:2000; anti-human IgG detection
Description: Competitive ELISA assay. To further verify the specific antibody against Rha epitopes, inhibition ELISA was performed by immobilizing Rha conjugated BSA (BSA-R1) (10 μg ml^−1) on the 96-well plate, and free D-mannose (Man), D-glucose (Glc), N-Acetyl-Dglucosamine (GlcNAc), D-xylose (Xyl), L-fucose (Fuc), N-Acetyl-D-galactosamine (GalNAc), D-galactose (Gal) and L-rhamnose (Rha) were used as competing antigens (2-fold dilutions from 200 mM to 12.5 mM). After coated with BSA-R1 at 4° C. overnight, the solution was depleted and washed by PBST for three times (three minutes each time). Then, the plate was blocked with 5% (w/v) non-fat milk (PBST) in RT for 1.5 h, and rinsed by PBST once. Normal human serum diluted (1:2000) previously, containing different free monosaccharide at different concentration, was added into the 96-well plate with 0.1 mL per well. After 2 h incubation, the plate was rinsed by PBST 3 times. Then 0.1 mL Horseradish Peroxidase (HRP)-conjugated antihuman IgG antibody (1:3000) was added into each well and stayed in RT for 1 h. Finally, after the plates were washed, enzyme substrate tetramethylbenzidine (TMB) was added and allowed to react for 10-20 min before the enzymatic reaction was terminated by adding 1N HCl and the absorbance was read at wavelength of 450 nm in a FlexStation® 3 Microplate Reader (Molecular devices).

C[C@H](O)[C@H](O)[C@@H](O)[C@@H](O)C=O [Rha, L-rhamnose]
competition for antibodies in human serum: pulled down the antibodies
